Assay results taken from patent US10308607B2, “Fucosidase inhibitors” (HORIZON ORPHAN LLC, priority 2015, dated 2019).
Several values for one entry are separate records, joined by “and”; a condition that tells them apart may be missing. Identical values can stand only once. Like-named read-outs stand apart in the source and are kept apart here.

Assays:
[1] = Biodistribution in mouse liver and colon; format: in vivo; conditions: for Conc. of cmpd II in colon / Mean conc. of cmpd II in colon: mouse colon; for Conc. of cmpd II in colon / Conc. of cmpd II in liver: individual animal; for Conc. of cmpd II in liver / Mean conc. of cmpd II in liver: mouse liver
Description: To assess the biodistribution of compound II (see Example 2) in mouse liver and colon, compound II was administered intravenously at a dosage of 1 mg/kg.

[2] = Multiplexed cytotoxicity assay; format: cell-based, human; conditions: human, HepG2 cells (liver carcinoma), read-out: Cytotoxic EC50
Description: (§1) To assess the cytotoxicity of compound II (see Example 2) in cancer and normal cells, the cells were grown in RPMI1640, 10% FBS, 2 mM L-alanyl-L-Glutamine, 1 mM Na Pyruvate or a special medium in a humidified atmosphere of 5% CO2 at 37° C. Cells were seeded into 384-well plates and incubated in a humidified atmosphere of 5% CO2 at 37° C. Compound II was added 24 hours post cell seeding. At the same time, a time zero untreated cell plate was generated.
(§2) After a 72 hour incubation period, cells were fixed and stained with fluorescently labeled antibodies and nuclear dye to allow visualization of nuclei, apoptotic cells and mitotic cells. Apoptotic cells were detected using an anti-active caspase-3 antibody. Mitotic cells were detected using an anti phospho-histone-3 antibody.
(§3) Compound II was serially diluted 3.16-fold and assayed over 9 concentrations. Automated fluorescence microscopy was carried out using a GE Healthcare IN Cell Analyzer 1000, and images were collected with a 4× objective.
(§4) Twelve bit tiff images were acquired using the InCell Analyzer 1000 3.2 and analyzed with Developer Toolbox 1.6 software. EC50 and IC50 values were calculated using nonlinear regression to fit data to a sigmoidal 4 point, 4 parameter One-Site dose response model, where: y (fit)=A+[(B−A)/(1+((C/x)^D))]. […]

HepG2 = test: Multiplexed cytotoxicity assay; format: cell-based, human; conditions: HepG2, liver carcinoma, 72 hour
Description: as §1, §2, §3, §4

SKOV3 = test: Multiplexed cytotoxicity assay; format: cell-based; conditions: SKOV3, ovary carcinoma, 72 hour
Description: as §1, §2, §3
(§5) Twelve bit tiff images were acquired using the InCell Analyzer 1000 3.2 and analyzed with Developer Toolbox 1.6 software. EC50 and IC50 values were calculated using nonlinear regression to fit data to a sigmoidal 4 point, 4 parameter One-Site dose response model, where: y (fit)=A+[(B−A)/(1+((C/x)^D))]. Curve-fitting, EC50/IC50 calculations and report generation are performed using a custom data reduction engine MathIQ based software (AIM).
(§6) The multiplexed cytotoxicity assay uses a cell image based analysis technique where cells are fixed and stained with fluorescently labeled antibodies and nuclear dye to visualize nuclei, and apoptotic and mitotic cells. Apoptotic cells are detected using an anti-active caspase-3 antibody. Mitotic cells are detected using an anti phospho-histone-3 antibody. Cell proliferation is measured by the signal intensity of the incorporated nuclear dye. The cell proliferation assay output is referred to as the relative cell count. To determine the cell proliferation end point, the cell proliferation data output is transformed to percent of control (POC) using the following formula: POC=relative cell count(compound wells)/relative cell count(vehicle wells)×100.
(§7) Relative cell count IC50 is the test compound concentration at 50% of maximal possible response. A relative cell count EC50 is the test compound concentration at the curve inflection point or half the effective response (parameter C of the fitted curve solution). GI50 is the concentration needed to reduce the observed growth by half. This is the concentration that inhibits the growth midway between untreated cells and the number of cells seeded in the well (Time zero value).
(§8) The activated caspase-3 marker labels cells from early to late stage apoptosis. The output is shown as a fold increase of apoptotic cells over vehicle background normalized to the relative cell count in each well. Concentrations of test compound that cause a 5-fold induction in the caspase-3 signal indicates significant apoptosis induction. Wells with concentrations higher than the relative cell count IC95 are eliminated from the caspase3 induction analysis.
(§9) The phospho-histone-3 marker labels mitotic cells. The output is shown as a fold induction of mitotic cells over vehicle background normalized to the relative cell count in each well. When the fold induction of mitotic cell signal over background is ˜1, there is “no effect” on the cell cycle. Two or more fold increase in phospho-histone-3 signal over vehicle background indicates significant test compound induction of mitotic block.
(§10) Two or more fold decrease in the phospho-histone-3 signal may indicate G1/S block only when cytotoxicity levels are below the measured relative cell count IC95. […]

HRPTEpiC = test: Multiplexed cytotoxicity assay; format: cell-based; conditions: normal renal, 72 hour
Description: as §1, §2, §3, §5, §6, §7, §8, §9, §10

NHDF = test: Multiplexed cytotoxicity assay; format: cell-based; conditions: normal skin, 72 hour
Description: as §1, §2, §3, §5, §6, §7, §8, §9, §10

U-87 MG = test: Multiplexed cytotoxicity assay; format: cell-based; conditions: brain blastoma, 72 hour
Description: as §1, §2, §3, §5, §6, §7, §8, §9, §10

HeLa = test: Multiplexed cytotoxicity assay; format: cell-based; conditions: cervix carcinoma, 72 hour
Description: as §1, §2, §3, §5, §6, §7, §8, §9, §10

[3] = Multiplexed cytotoxicity assay; format: cell-based; conditions: human, read-out: Cytotoxic EC50
Description: as §1, §2, §3, §5, §6, §7, §8, §9, §10

HT-1080 = test: Multiplexed cytotoxicity assay; format: cell-based; conditions: HT-1080, connective sarcoma, 72 hour
Description: as §1, §2, §3, §5, §6, §7, §8, §9, §10

HPH = test: Multiplexed cytotoxicity assay; format: cell-based; conditions: normal primary hepatocyte, 72 hour
Description: as §1, §2, §3, §5, §6, §7, §8, §9, §10

HepG2 cells = test: Metabolic labeling with tagged-fucose, flow cytometry; format: cell-based, human
Description: Perturbations in glycoprotein metabolism were assayed by growing HepG2 cells without fucosidase inhibitors, or with compound II, III, or IV (see Example 2) for 24 hours, and then adding (3S,4R,5R,6S)-6-ethynyltetrahydro-2H-pyran-2,3,4,5-tetrayl tetra acetate, a per-acetylated analog of fucose containing an alkyne moiety in place of the 5′-methyl group (Click-iT™ Fucose Alkyne, Molecular Probes, Eugene, Oreg.) for an additional 48 hours. Cells were fixed, permeabilized, washed, and stained with Alexa Fluor 488 Azide to orthogonally label glycoproteins incorporating the fucose analog. Cells were then analyzed for fluorescence using a Guava 6HT-2L flow cytometer (ThermoFisher).

With `C[C@@H]1N[C@H](CNC(=O)c2cccc3c2C(=O)c2ccccc2-3)[C@@H](O)[C@H](O)[C@@H]1O` [Compound II] the “Conc. of cmpd II in colon” value ([1]; IV 1 mg/kg qdx1, 1 h) was 1770 ng/g and 1640 ng/g and 1930 ng/g, the “Mean conc. of cmpd II in colon” value ([1]; IV 1 mg/kg qdx1, 1 h) was 1780 ng/g and the “Conc. of cmpd II in colon” value ([1]; IV 1 mg/kg qdx1, 8 h) was 638 ng/g and 289 ng/g and 872 ng/g. The “Mean conc. of cmpd II in colon” value ([1]; IV 1 mg/kg qdx1, 8 h) was 600 ng/g, the “Conc. of cmpd II in liver” value ([1]; IV 1 mg/kg qdx1, 1 h) was 298 ng/g and 301 ng/g and 188 ng/g and the “Mean conc. of cmpd II in liver” value ([1]; IV 1 mg/kg qdx1, 1 h) was 262 ng/g. The “Conc. of cmpd II in liver” value ([1]; IV 1 mg/kg qdx1, 8 h) was 9.03 ng/g and 7.64 ng/g and 12.9 ng/g, the “Mean conc. of cmpd II in liver” value ([1]; IV 1 mg/kg qdx1, 8 h) was 9.86 ng/g and the EC50 at 72 h [2] was 44 µM. The G1/S arrest (HepG2) was 36 µM, the G1/S arrest (SKOV3) was 98 µM and the G1/S arrest (HRPTEpiC) was 10 µM. The G1/S arrest (NHDF) was 14 µM, the G1/S arrest (U-87 MG) was 26 µM and the G1/S arrest (HeLa) was 70 µM. It also gave an EC50 at 72 h ([3]; A549 cells (lung carcinoma)) of 29 µM, an EC50 at 72 h ([3]; BxPC-3 cells (pancreas carcinoma), BxPC-3, pancreas carcinoma) of 43 µM and an EC50 at 72 h ([3]; HPH (normal primary hepatocytes), normal primary hepatocyte) greater than 100 µM. The EC50 at 72 h ([3]; HRPTEpiC cells (normal renal)) was 72 µM, the EC50 at 72 h ([3]; HT-29 cells (colon carcinoma), HT-29, colon carcinoma) was 31 µM and the EC50 at 72 h ([3]; HT-1080 cells (connective sarcoma), HT-1080, connective sarcoma) was 21 µM. For the same compound, the EC50 at 72 h ([3]; HUMSC cells (normal mesenchymal stem cells)) was 9 µM, the EC50 at 72 h ([3]; HUVEC cells (normal endothelium)) was 14 µM and the EC50 at 72 h ([3]; HeLa cells (cervix carcinoma)) was 47 µM. The EC50 at 72 h ([3]; K562 cells (blood leukemia)) was 98 µM, the EC50 at 72 h ([3]; LNCaP cells (prostate carcinoma)) was 54 µM and the EC50 at 72 h ([3]; MDA-MB-231 cells (breast carcinoma), MDA-MB-231, breast carcinoma) was 44 µM. For the same compound, the EC50 at 72 h ([3]; NHDF cells (normal skin)) was 22 µM, the EC50 at 72 h ([3]; SKOV3 cells (ovary carcinoma)) was greater than 100 µM and the EC50 at 72 h ([3]; SNU-423 cells (liver carcinoma), SNU-423, liver carcinoma) was greater than 100 µM. The EC50 at 72 h ([3]; U-87 MG cells (brain blastoma)) was 34 µM, the G1/S arrest (HT-1080) was 78 µM and the Primary effect (HPH) was “no effect”. The “Mean Green Fluorescence (GRN-HLog)” value (HepG2 cells; HepG2, 24 hours compound then 48 hours fucose alkyne, Alexa Fluor 488 Azide) was 8433 and the Fold over vehicle (HepG2 cells; mean green fluorescence, HepG2) was 2.98.
